Data on 49 compounds can be found in patent publication US7605155B2, “Substituted pyrazolo[1,5-a]pyrimidines as protein kinase inhibitors” (priority 2002, dated 2009).

This test addresses CDK2 (either cyclin A or E-dependent) (Homo sapiens, UniProt P24941). The test can be described thus: biochemical. The text has this:
BACULOVIRUS CONSTRUCTIONS: Cyclins A and E were cloned into pFASTBAC (Invitrogen) by PCR, with the addition of a GluTAG sequence (EYMPME) at the amino-terminal end to allow purification on anti-GluTAG affinity columns. […] CDK2 was also cloned into pFASTBAC by PCR, with the addition of a haemaglutinin epitope tag at the carboxy-terminal end ([…]).
ENZYME PRODUCTION: Recombinant baculoviruses expressing cyclins A, E and CDK2 were infected into SF9 cells at a multiplicity of infection (MOI) of 5, for 48 hrs. Cells were harvested by centrifugation at 1000 RPM for 10 minutes. Cyclin-containing (E or A) pellets were combined with CDK2 containing cell pellets and lysed on ice for 30 minutes in five times the pellet volume of lysis buffer containing 50 mM Tris pH 8.0, 0.5% NP40, 1 mM DTT and protease/phosphatase inhibitors (Roche Diagnostics GmbH, Mannheim, Germany). Mixtures were stirred for 30-60 minutes to promote cyclin-CDK2 complex formation. Mixed lysates were then spun down at 15000 RPM for 10 minutes and the supernatant retained. 5 ml of anti-GluTAG beads (for one liter of SF9 cells) were then used to capture cyclin-CDK2 complexes. Bound beads were washed three times in lysis buffer. Proteins were competitively eluted with lysis buffer containing 100-200 ug/mL of the GluTAG peptide. Eluate was dialyzed overnight in 2 liters of kinase buffer containing 50 mM Tris pH 8.0, 1 mM DTT, 10 mM MgCl2, 100 uM sodium orthovanadate and 20% glycerol. Enzyme was stored in aliquots at −70° C.
IN VITRO KINASE ASSAY: CDK2 kinase assays (either cyclin A or E-dependent) were performed in low protein binding 96-well plates (Corning Inc, Corning, N.Y.). Enzyme was diluted to a final concentration of 50 μg/ml in kinase buffer containing 50 mM Tris pH 8.0, 10 mM MgCl2, 1 mM DTT, and 0.1 mM sodium orthovanadate. The substrate used in these reactions was a biotinylated peptide derived from Histone H1 (from Amersham, UK). The substrate was thawed on ice and diluted to 2 μM in kinase buffer. Compounds were diluted in 10% DMSO to desirable concentrations. For each kinase reaction, 20 μl of the 50 μg/ml enzyme solution (1 μg of enzyme) and 20 μl of the […] substrate solution were mixed, then combined with 10 μl of diluted compound in each well for testing. […] The reaction was allowed to run for 1 hour at room temperature. The reaction was stopped by adding 200 μl of stop buffer containing 0.1% Triton X-100, 1 mM ATP, 5 mM EDTA, and 5 mg/ml streptavidine coated SPA beads (from Amersham, UK) for 15 minutes. The SPA beads were then captured onto a 96-well GF/B filter plate (Packard/Perkin Elmer Life Sciences) using a Filtermate universal harvester (Packard/Perkin Elmer Life Sciences.). Non-specific signals were eliminated by washing the beads twice with 2M NaCl then twice with 2 M NaCl with 1% phosphoric acid. The radioactive signal was then measured using a TopCount 96 well liquid scintillation counter (from Packard/Perkin Elmer Life Sciences).
IC50 DETERMINATION: Dose-response curves were plotted from inhibition data generated, each in duplicate, from 8 point serial dilutions of inhibitory compounds. Concentration of compound was plotted against % kinase activity, calculated by CPM of treated samples divided by CPM of untreated samples. To generate IC50 values, the dose-response curves were then fitted to a standard sigmoidal curve and IC50 values were derived by nonlinear regression analysis. These kinase activities were generated by using cyclin A or cyclin E using the above-described assay.
On to `Nc1cc(C2CCCNC2)nc2c(-c3coc(C=NO)c3)cnn12` (stereo not shown), for which it took 40 nM to reach half-maximal inhibition (IC50). This lies in the double-digit nanomolar range.

As to `CC(C)Cc1ncc(-c2cnn3c(N)cc(C4CCCNC4)nc23)s1` (stereo not shown), the IC50 (as a rule, the concentration that inhibits the measured activity by half) was 1300 nM.

With `N#Cc1ccc(-c2cnn3c(N)c(Br)c(C4CCCNC4)nc23)cn1` (stereo not shown), the IC50 amounted to 880 nM.

Consider `Cn1cc(-c2cnn3c(N)c(Br)c(N4CC[C@H](N)C4)nc23)cn1`, for which the IC50 came out at 1200 nM.

Compound `Cn1cc(-c2cnn3c(N)c(Br)c([C@@H]4CC[C@@H](N)C4)nc23)cn1` gave an IC50 of 120 nM.

As for `N#Cc1ccc(-c2cnn3c(N)c(Br)c(C4CCCNC4)nc23)cc1` (stereo not shown), half-maximal inhibition (IC50) required 240 nM.

In turn, `Nc1cc(C2CCCNC2)nc2c(-c3ncon3)cnn12` (stereo not shown) gave an IC50 of 2500 nM.

`Cn1cc(-c2cnn3c(N)c(Br)c(C4CNCCNC4)nc23)cn1` displayed an IC50 of 720 nM.

For `N#Cc1cc(-c2cnn3c(N)c(Cl)c(C4CCCNC4)nc23)co1` (stereo not shown), inhibition was half-maximal at 210 nM (IC50).

For `Nc1cc(C2CCCNC2)nc2c(-c3cnn(CCO)c3)cnn12` (stereo not shown), the IC50 came to 4300 nM.

`Cn1cc(-c2cnn3c(N)c(Br)c(C4CNCCN(S(C)(=O)=O)C4)nc23)cn1` (stereo not shown) displayed a concentration for half-maximal inhibition (IC50) of 3100 nM.

As for `Cn1cc(-c2cnn3c(N)c(Br)c(C4CCCCN4)nc23)cn1` (stereo not shown), the IC50 worked out at 28000 nM.

In turn, `Cn1cc(-c2cnn3c(N)cc([C@H]4CC[C@@H](CO)NC4)nc23)cn1` had an IC50 of 12000 nM.

`Nc1cc(C2CCCNC2)nc2c(-c3cn[nH]c3)cnn12` (stereo not shown) had an IC50 of 1500 nM.

`Cn1cc(-c2cnn3c(NCc4ccccc4)cc(C4CCCNC4)nc23)cn1` (stereo not shown) registered an IC50 of 31000 nM.

`Nc1c(Br)c(C2CCCNC2)nc2c(-c3cscn3)cnn12` (stereo not shown): the IC50 amounted to 5800 nM.

As to `Cn1cc(-c2cnn3c(N)c(Br)c([C@@H]4CC[C@H](N)C4)nc23)cn1`, the IC50 turned out to be 240 nM.

Compound `Nc1c(Br)c(C2CCCNC2)nc2c(-c3cncs3)cnn12` (stereo not shown) had an IC50 of 96 nM.

With `Nc1c(Br)c(C2CCCNC2)nc2c(-c3ccc4c(c3)OCO4)cnn12` (stereo not shown), the IC50 is 570 nM.

The compound `N#Cc1cncc(-c2cnn3c(N)c(Br)c(C4CCCNC4)nc23)c1` (stereo not shown) came in with an IC50 of 5800 nM.

The compound `Cn1cc(-c2cnn3c(N)c(Br)c([C@H]4CCC[C@@H](N)C4)nc23)cn1` gave an IC50 of 440 nM. Compared with the last compound, the IC50 is about 13-fold lower.

In the case of `Cn1cc(-c2cnn3c(N)c(Br)c(CCNCc4ccccc4)nc23)cn1`, the IC50 came to 3700 nM.

The compound `Cn1cc(-c2cnn3c(NC4CCCC4)cc(C4CCCNC4)nc23)cn1` (stereo not shown) returned an IC50 of 25000 nM.

In turn, `Nc1cc(C2CCCNC2)nc2c(-c3cncs3)cnn12` (stereo not shown) came in with an IC50 of 210 nM.

Regarding `N#Cc1cc(-c2cnn3c(N)c(Br)c(C4CCCNC4)nc23)co1` (stereo not shown), the midpoint of inhibition, the IC50, lay at 140 nM.

Compound `Nc1c(Br)c(C2CCCNC2)nc2c(-c3cnoc3)cnn12` (stereo not shown) yielded an IC50 of 160 nM.

In turn, `Cn1cc(-c2cnn3c(N)cc([C@@H]4CC[C@@H](N)C4)nc23)cn1` showed an IC50 of 5600 nM.

The compound `C/C(=N\O)[C@@H]1CC[C@H](c2nc3c(-c4cnn(C)c4)cnn3c(N)c2Br)CN1` gave an IC50 of 520 nM.

The compound `CC(=O)N1CCNCC(c2nc3c(-c4cnn(C)c4)cnn3c(N)c2Br)C1` (stereo not shown) had an IC50 of 2600 nM. Compared with the last compound, the IC50 is about 5-fold higher.

As to `Cn1cc(-c2cnn3c(N)c(Br)c(CC4CNCCO4)nc23)cn1` (stereo not shown), the IC50 was 6100 nM.

Regarding `CN(C)C(=O)Cn1cc(-c2cnn3c(N)c(Br)c(C4CCCNC4)nc23)cn1` (stereo not shown), the IC50 stood at 1400 nM. Compared with the last compound, the IC50 is about 4.4-fold lower.

Compound `CCn1cc(-c2cnn3c(N)c(Br)c(C4CCCNC4)nc23)cn1` (stereo not shown) registered an IC50 of 410 nM.

Take `N#CCc1ccc(-c2cnn3c(N)cc(C4CCCNC4)nc23)cc1` (stereo not shown): inhibition was half-maximal at 12000 nM (IC50). Against the preceding compound, the IC50 is about 29-fold higher.

Consider `CC(N)CCc1nc2c(-c3cnn(C)c3)cnn2c(N)c1Br` (stereo not shown), for which it took 1200 nM to reach half-maximal inhibition (IC50). Against the preceding compound, the IC50 is about 10-fold lower.

Compound `CC(C)N1CCNCC(c2nc3c(-c4cnn(C)c4)cnn3c(N)c2Br)C1` (stereo not shown) registered an IC50 of 2600 nM.

In the case of `Nc1cc(C2CCCNC2)nc2c(-c3cscn3)cnn12` (stereo not shown), the IC50 is 10000 nM.

`Cn1cc(-c2cnn3c(N)cc([C@@H]4CC[C@H](N)C4)nc23)cn1` gave an IC50 of 3700 nM.

As for `CC(C)n1cc(-c2cnn3c(N)cc(C4CCCNC4)nc23)cn1` (stereo not shown), the IC50 turned out to be 8300 nM.

`COC(=O)[C@@H]1CC[C@H](c2cc(N)n3ncc(-c4cnn(C)c4)c3n2)CN1` displayed an IC50 of 14000 nM.

Compound `Nc1cc(C2CCCNC2)nc2c(-c3cnoc3)cnn12` (stereo not shown) displayed an IC50 of 790 nM.

Regarding `Nc1c(Br)c(C2CCCNC2)nc2c(-c3cnn(CCO)c3)cnn12` (stereo not shown), the IC50 was 200 nM. This IC50 lies about 4-fold lower than the previous one.

Regarding `N#Cc1ccc(-c2cnn3c(N)cc(C4CCCNC4)nc23)cn1` (stereo not shown), the IC50 was 2300 nM.

The compound `CCNc1c(Br)c(C2CCCNC2)nc2c(-c3cnn(C)c3)cnn12` (stereo not shown) had an IC50 of 5700 nM.

Consider `Cn1cc(-c2cnn3c(N)c(Br)c(CC4CNCCN4)nc23)cn1` (stereo not shown), for which inhibition was half-maximal at 5700 nM (IC50). In other words, the single-digit micromolar range.

Take `Cn1cc(-c2cnn3c(N)cc(C4(F)CCCNC4)nc23)cn1` (stereo not shown): the IC50 was determined as 6000 nM.

Take `Nc1c(Br)c(C2CCCNC2)nc2c(-c3cnccn3)cnn12` (stereo not shown): the IC50 was found to be 4700 nM.

In turn, `Cn1cc(-c2cnn3c(N)c(I)c(C4CCCNC4)nc23)cn1` (stereo not shown) had a 50% inhibitory concentration (IC50) of 20 nM.

`Cn1cc(-c2cnn3c(N)c(Br)c(C4CCCN(CCO)C4)nc23)cn1` (stereo not shown) had an IC50 of 1750 nM.

Compound `Nc1cc(C2CCCNC2)nc2c(-c3ccc(CO)cc3)cnn12` (stereo not shown) yielded an IC50 of 1400 nM.
